Where two headings read alike, the source gives them in different places.
Experiments:
human α1B-adrenoceptor = target: T1, human α1B-adrenoceptor (Homo sapiens, UniProt P35368); experiment: [3H]prazosin whole-cell competition binding, CHO-α1B cells; conditions: for Selectivity ratio α1B vs α1D: ratio of KD values, higher α1B affinity, 1.0 under vs = none
T1 construct: CHO cells stably expressing either the full‐length human α1A, α1B, or α1D‐adrenoceptor
T1 sequence (P35368 1-520): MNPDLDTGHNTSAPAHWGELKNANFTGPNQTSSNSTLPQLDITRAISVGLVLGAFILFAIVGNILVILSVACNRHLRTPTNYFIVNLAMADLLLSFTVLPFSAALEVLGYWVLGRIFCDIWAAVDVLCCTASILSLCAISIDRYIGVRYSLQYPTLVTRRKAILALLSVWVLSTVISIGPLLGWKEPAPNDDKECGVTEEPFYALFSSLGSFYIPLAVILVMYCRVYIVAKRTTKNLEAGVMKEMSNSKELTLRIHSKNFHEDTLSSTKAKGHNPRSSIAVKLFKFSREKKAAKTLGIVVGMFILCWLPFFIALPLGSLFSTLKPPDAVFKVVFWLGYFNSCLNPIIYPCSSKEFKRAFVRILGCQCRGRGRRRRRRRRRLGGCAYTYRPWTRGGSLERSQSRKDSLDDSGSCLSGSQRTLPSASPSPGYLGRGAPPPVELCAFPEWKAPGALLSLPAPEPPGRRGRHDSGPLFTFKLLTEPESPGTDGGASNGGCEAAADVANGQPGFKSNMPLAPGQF

human α1A-adrenoceptor = target: T2, human α1A-adrenoceptor (Homo sapiens, UniProt P35348); experiment: [3H]prazosin whole-cell competition binding, CHO-α1A cells
T2 construct: CHO cells stably expressing either the full‐length human α1A, α1B, or α1D‐adrenoceptor
T2 sequence (P35348 1-466): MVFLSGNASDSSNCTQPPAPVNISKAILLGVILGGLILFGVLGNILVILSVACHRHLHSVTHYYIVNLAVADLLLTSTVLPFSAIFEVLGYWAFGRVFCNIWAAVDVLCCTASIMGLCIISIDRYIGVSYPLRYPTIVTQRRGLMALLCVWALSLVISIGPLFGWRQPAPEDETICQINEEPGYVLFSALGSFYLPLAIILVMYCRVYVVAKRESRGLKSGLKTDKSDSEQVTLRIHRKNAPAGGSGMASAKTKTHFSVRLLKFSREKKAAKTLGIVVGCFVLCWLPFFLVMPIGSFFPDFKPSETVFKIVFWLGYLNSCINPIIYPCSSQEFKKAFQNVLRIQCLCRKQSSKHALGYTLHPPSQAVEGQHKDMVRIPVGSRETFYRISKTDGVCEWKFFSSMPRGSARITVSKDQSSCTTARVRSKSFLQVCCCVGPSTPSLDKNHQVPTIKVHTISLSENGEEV

[1] = target: T3, full-length human α1D-adrenoceptor (Homo sapiens, UniProt P25100); experiment: [3H]prazosin whole-cell competition binding, CHO-α1D cells
T3 sequence (P25100 1-572): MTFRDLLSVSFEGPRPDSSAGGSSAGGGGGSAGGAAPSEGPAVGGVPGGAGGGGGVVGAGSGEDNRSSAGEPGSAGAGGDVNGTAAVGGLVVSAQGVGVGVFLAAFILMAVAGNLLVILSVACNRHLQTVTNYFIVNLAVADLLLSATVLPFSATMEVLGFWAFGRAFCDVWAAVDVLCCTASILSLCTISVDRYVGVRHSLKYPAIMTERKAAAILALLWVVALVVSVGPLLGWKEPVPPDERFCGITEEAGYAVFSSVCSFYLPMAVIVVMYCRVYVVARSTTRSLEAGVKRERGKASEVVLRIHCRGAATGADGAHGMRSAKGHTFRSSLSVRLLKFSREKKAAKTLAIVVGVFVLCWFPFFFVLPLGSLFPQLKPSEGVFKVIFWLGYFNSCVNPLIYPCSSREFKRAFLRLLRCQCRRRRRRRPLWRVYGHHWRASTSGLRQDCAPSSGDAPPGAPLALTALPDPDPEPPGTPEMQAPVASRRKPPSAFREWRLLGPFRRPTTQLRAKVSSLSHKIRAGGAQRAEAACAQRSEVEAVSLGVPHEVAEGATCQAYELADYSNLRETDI

[2] = single-component inhibition curve, given as log KD (negative), mean ± SE mean, read-out: Log KD α1B (converted)
[3] = ratio of KD values, higher α1A affinity, 1.0 under vs = none
[4] = ratio of KD values, printed under α1A = higher α1A affinity, 1.0 under vs = none
[5] = single-component inhibition curve, given as log KD (negative), mean ± SE mean, read-out: Log KD α1A (converted)
[6] = Log KD α1D, single-component inhibition curve, given as log KD (negative), mean ± SE mean
[7] = ratio, 1 = no selectivity for a subtype over another
[8] = ratio of KD values, higher α1D affinity (site 1 KD)

| Compound | Kd (human α1B-adrenoceptor; [2]) [nM] | Selectivity ratio α1A vs α1D (human α1A-adrenoceptor; [3]) [fold] | Selectivity ratio α1A vs α1B (human α1A-adrenoceptor; [4]) [fold] | Kd (human α1A-adrenoceptor; [5]) [nM] | Kd [1, 6] [nM] | selectivity α1B vs α1D (human α1B-adrenoceptor; [7]) | Selectivity ratio α1B vs α1D [1, 8] [fold] | further results |
| --- | --- | --- | --- | --- | --- | --- | --- | --- |
| CN1CCc2cccc(Cl)c2CC1 [SKF86466] | – | – | – | – | – | – | – | Kd (human α1B-adrenoceptor): 11700 nM; selectivity α1B vs α1D (human α1B-adrenoceptor): 1.7; Kd (human α1A-adrenoceptor): 871 nM; Selectivity ratio α1A vs α1B (human α1A-adrenoceptor): 13 fold; Selectivity ratio α1A vs α1D (human α1A-adrenoceptor): 7.9 fold; selectivity α1A vs α1B (human α1A-adrenoceptor): 13.5; Kd [1]: 6920 nM; Selectivity ratio α1B vs α1D [1]: 1.7 fold |
| O=C1NCCN1CCN1CCC(c2cn(-c3ccc(F)cc3)c3ccc(Cl)cc23)CC1 [Sertindole] | 5.25 | 219 | 9.8 | 0.537 | 117 | – | – | Selectivity ratio α1B vs α1D (human α1B-adrenoceptor): 22 fold |
| CN[C@H]1CC[C@@H](c2ccc(Cl)c(Cl)c2)c2ccccc21 [Sertraline] | 3550 | – | – | 1910 | 2450 | – | – | selectivity α1B vs α1D (human α1B-adrenoceptor): 1.4; Selectivity ratio α1A vs α1B (human α1A-adrenoceptor): 1.9 fold; Selectivity ratio α1A vs α1D (human α1A-adrenoceptor): 1.3 fold; Selectivity ratio α1B vs α1D [1]: 1.4 fold |
| COc1ccc(C(CN(C)C)C2(O)CCCCC2)cc1 (stereo not drawn) [Venlafaxime] | – | – | >4.9 | – | – | >24 | >24 | Log KD α1B: result in words (human α1B-adrenoceptor; no inhibition of [3H]prazosin binding at maximum concentration possible): No binding to 1 mmol/L; binding at α1B (human α1B-adrenoceptor; result in words in the Log KD α1B column): No binding to 1mM; binding at α1B (result in words) (human α1B-adrenoceptor; up to the maximum concentration): No binding to 1mM; Log KD α1A (apparent) (human α1A-adrenoceptor; app: top concentration inhibited most but not all specific binding, curve extrapolated): −3.69 ± 0.02^app; selectivity α1A vs 1D (human α1A-adrenoceptor; [7]): 4.9; Selectivity ratio α1A vs α1D [1, 8]: 4.9 fold; Log KD α1D ([1]; single-component inhibition curve, given as log KD (negative), mean ± SE mean): −4.38 ± 0.16 |
| Labetolol | – | – | – | – | – | – | – | selectivity α1B vs α1D (human α1B-adrenoceptor): 1.6; Selectivity ratio α1A vs α1B (human α1A-adrenoceptor): 26 fold; Selectivity ratio α1A vs α1D (human α1A-adrenoceptor): 16 fold; Selectivity ratio α1B vs α1D [1]: 1.6 fold |

Second part, led by results:

| Kd (human α1B-adrenoceptor; [2]) [nM] | Selectivity ratio α1A vs α1D (human α1A-adrenoceptor; [3]) [fold] | Selectivity ratio α1A vs α1B (human α1A-adrenoceptor; [4]) [fold] | Kd (human α1A-adrenoceptor; [5]) [nM] | Kd [1, 6] [nM] | selectivity α1B vs α1D (human α1B-adrenoceptor; [7]) | Selectivity ratio α1B vs α1D [1, 8] [fold] | Compound | further results |
| --- | --- | --- | --- | --- | --- | --- | --- | --- |
| 316 | 468 | 1288 | 0.245 | 115 | 2.8 | 2.8 | C[C@H](Cc1cc2c(c(C(N)=O)c1)N(CCCO)CC2)NCCOc1ccccc1OCC(F)(F)F [Silodosin] | Kd (human α1A-adrenoceptor; subtype not given, ligands with α1A selectivity (Table 1: α1A), read-out: affinity): < 0.25 nM |
| 389 | – | 2.8 | 138 | – | 28 | 28 | O=C1NCN(c2ccccc2)C12CCN(CC1COc3ccccc3O1)CC2 (stereo not drawn) [Spiroxatrine] | selectivity α1A vs 1D (human α1A-adrenoceptor; [7]): 10; Kd ([1]; Log KD α1D site 1, high-affinity component of two-component curve, control, used for selectivity): 13.8 nM; Log KD α1D site 2 ([1]; low-affinity component of two-component curve, control): −5.84 ± 0.31; % site 1 α1D ([1]; percentage of inhibition through first component, control): 61.9 ± 4.0% site 1; Selectivity ratio α1A vs α1D [1, 8]: 10 fold; % site 1 α1D ([1]; two-component inhibition curve, proportion of site 1): -7.86 ± 0.13 -5.84 ± 0.31 61.9 ± 4.0% site 1 |
| – | 6.9 | >32 | 31600 | – | >4.6 | >4.6 | CCN1CCCC1CNC(=O)c1cc(S(N)(=O)=O)ccc1OC (stereo not drawn) [Sulpiride] | selectivity α1A vs α1B (human α1A-adrenoceptor; [7]): >31; Kd ([1]; Log KD α1D (apparent), app: top concentration inhibited most but not all specific binding, curve extrapolated): 219000 ± 5380 nM |
| 22400 | 2.8 | 13 | 1660 | 4680 | 4.8 | 4.8 | O=C1CCC(=O)N1C[C@H]1CC[C@H]2CN(c3ncccn3)CCN2C1 [Sunepitron] | – |
| 3160 | 6.9 | 51 | 61.7 | 427 | 7.4 | 7.4 | COc1ccccc1N1CCN(CCCNc2cc(=O)n(C)c(=O)n2C)CC1 [Urapidil] | – |
| 3800 | 7.8 | 7.9 | 479 | 3720 | – | – | Cc1ccc(Sc2ccccc2N2CCNCC2)c(C)c1 [Vortioxetine] | Selectivity ratio α1B vs α1D (human α1B-adrenoceptor): 1.0 fold |
| 20 | 34 | 11 | 1.86 | 63.1 | – | – | O=C1Cc2cc(CCN3CCN(c4nsc5ccccc45)CC3)c(Cl)cc2N1 [Ziprasidone] | Selectivity ratio α1B vs α1D (human α1B-adrenoceptor): 3.2 fold |

From article PMC7327383, “The affinity and selectivity of α‐adrenoceptor antagonists, antidepressants, and antipsychotics for the human α1A, α1B, and α1D‐adrenoceptors” (Pharmacology Research & Perspectives, 2020)
